Reference: patent US20260034064A1, “COMPOSITIONS FOR THE TREATMENT OF CFTR-MEDIATED DISEASES” (Vertex Pharmaceuticals Incorporated, priority 2022, published 2026)

Experiments:
[1] = Bioavailability of the solid form of Compound I; details: no species, dose or data printed
[2] = Thermodynamic stability of solid forms of Compound I; type: physicochemical; details: compared with other forms of Compound I; no method or data given

bioavailability [1]: good bioavailability
thermodynamic stability of the solid form [2]: most thermodynamically stable form
Compound: Cc1nn(C)cc1S(=O)(=O)NC(=O)c1ccc(-n2ccc(OCC(C)(C)C(F)(F)F)n2)nc1N1C[C@@H](C)CC1(C)C [Crystalline Compound I Form A, N-(1,3-dimethylpyrazol-4-yl)sulfonyl-6-[3-(3,3,3-trifluoro-2,2-dimethyl-propoxy)pyrazol-1-yl]-2-[(4S)-2,2,4-trimethylpyrrolidin-1-yl]pyridine-3-carboxamide]
